Entries after “also recorded” stand apart in the source; their conditions may differ.
Key:
[1] = system: mouse macrophages RAW264.7; test: effect on proliferation activity of mouse macrophages RAW264.7; type: cell-based; conditions: n=3, FIG. 4
[2] = system: IL-6 secreted by mouse macrophages RAW264.7 induced by LPS; test: IL-6 secreted by LPS-induced RAW264.7 macrophages (ELISA); type: cell-based; conditions: LPS 100 ng/mL, 24 h; FIG. 5
Procedure: (§1) Effects of myricanol derivatives on the expression of inflammatory factors such as IL-6, TNF-α, PEG2 secreted by a mouse macrophage cell strain RAW 264.7 induced by bacterial lipopolysaccharide (hereinafter referred to as LPS) stimulus: A pre-prepared cell suspension was inoculated in a 96-well plate at 15000 cells/well and 100 μl/well and cultured overnight in an incubator with 5% CO2 at 37° C. At 80% cell confluence, the original culture medium was discarded, and each well was added with 100 μl of prepared drug solution to be tested with a different concentration, cultured for 1 h, and then added with a LPS solution, where the final concentration of LPS in the culture system was 100 ng/mL. Each concentration was set with 3 parallel wells, and a cell control group (no drug and no solvent) and a blank medium control group (no cells, a well for zero adjustment) were set. They were cultured for another 24 h. Cell culture supernatants were aspirated, and an R&D ELISA detection kit (M6000B; MTA00B; VAL601) was used for detecting the expression of the inflammatory factors such as IL-6, TNF-α, and PEG2 in each group. Cell proteins were collected, and a […] method was used for detecting COX-2 protein expression in each group.

[3] = system: PGE2 secreted by mouse macrophages RAW264.7 induced by LPS; test: PGE2 secreted by LPS-induced RAW264.7 macrophages (ELISA); type: cell-based; conditions: for inhibition of PGE2 secreted by RAW264.7 induced by LPS: LPS 100 ng/mL, 24 h, FIGS. 7 and 9
Procedure: as §1

[4] = system: COX2 protein expressed by mouse macrophages RAW264.7; test: COX2 protein expression in LPS-induced RAW264.7 macrophages (blot); type: cell-based; conditions: FIG. 8
Procedure: as §1

SD rats = test: acute toxicity, single oral dose; type: in vivo; conditions: single intragastric administration, 14 days observation
Excerpt: Trial method: 30 SD rats, half male and half female, were used. The average weight was 160-200 g for female rats and 180-220 g for male rats when grouped. An individual weight should be within ±20% of the average weight. Before the test, animals needed to accommodate to the environment for at least 5 days, and healthy rats (female rats should be not pregnant) were selected as test animals. Matter detected during the accommodation period mainly was: whether the rats were consistent with quality indexes required in the order; detection of general conditions; and whether the weight was within the weight range required by the test. Unqualified abnormal animals were excluded from the test. A single dosage was orally administered to rats at a low, medium, or high dose. […] A control group was set with the oral administration of the same volume of solvent.
The rats were observed about 0-2 h and 4-6 h after each administration. If a toxicity symptom occurs, the rats may be observed more times. (2) Gross anatomical observation: on the 14th day of the test, all surviving rats in each group were dissected and observed, and for administration sites and gross dissection, abnormal organs and tissues which were observed and found to be potentially related to test samples were photographed and recorded. (3) Disposal of dying animals: status of rats and observation time were recorded, and their weights were measured. (4) Disposal of dead animals: the time of death or when a rat was found dead were recorded. The rat was measured for weight before quickly dissected for gross observation and speculated for a cause of death.

Compound	effect on proliferation activity of mouse macrophages RAW264.7 ([1]; 30 μM)	inhibition of LPS-induced IL-6 secretion of RAW264.7 cells [2]	inhibition of PGE2 secreted by RAW264.7 induced by LPS [3]	inhibition of protein expression of IBD-related COX2 [4]	other results
5-n-propoxy myricanol [compound B]	no significant effects	very strong effects of inhibiting	significant effect of inhibiting PGE2; also recorded: strong ability to inhibit	can inhibit	–
COc1c2cc(c(OC(C)=O)c1OC)CCCCC(O)CCc1ccc(OC(C)=O)c-2c1 (centres unmarked) [compound A, 5,17-diacetoxy myricanol]	–	very strong effects of inhibiting	significant effect of inhibiting PGE2; also recorded: strong ability to inhibit	can inhibit	effect on proliferation activity of mouse macrophages RAW264.7 ([1]; 40 μM): no significant effects; Test Endpoint (toxic side effects) (SD rats; 100 mg/kg): No obvious toxic; Test Endpoint (toxic side effects) (SD rats; 300 mg/kg): No obvious toxic; Test Endpoint (toxic side effects) (SD rats; 1000 mg/kg): No obvious toxic
COc1c2cc(c(OCc3ccccc3)c1OC)CCCCC(O)CCc1ccc(O)c-2c1 (centres unmarked) [compound C, 5-benzyloxy myricanol]	no significant effects	–	–	–	–
C=CCOc1ccc2cc1-c1cc(c(OCC=C)c(OC)c1OC)CCCCC(O)CC2 (centres unmarked) [compound D, 5,17-diallyloxy myricanol]	no significant effects	–	–	–	–
C=CCOc1c2cc(c(OC)c1OC)-c1cc(ccc1O)CCC(O)CCCC2 (centres unmarked) [compound E, 5-allyloxy myricanol]	no significant effects	–	–	–	–
C=CCOc1ccc2cc1-c1cc(c(OCC=C)c(OC)c1OC)CCCCC(=O)CC2 [compound F, 5,17-allyloxy myricanone]	–	–	–	–	effect on proliferation activity of mouse macrophages RAW264.7 ([1]; 80 μM): no significant effects
COc1c2cc(c(OC(C)=O)c1OC)CCCCC(O)CCc1ccc(O)c-2c1 (centres unmarked) [compound G, 5-acetoxy myricanol]	–	very strong effects of inhibiting	significant effect of inhibiting PGE2; also recorded: strong ability to inhibit	can inhibit	effect on proliferation activity of mouse macrophages RAW264.7 ([1]; 40 μM): no significant effects; COX2 protein expression inhibition compared with myricanol [4]: better inhabitation effects than myricanol; Test Endpoint (toxic side effects) (SD rats; 100 mg/kg): No obvious toxic; Test Endpoint (toxic side effects) (SD rats; 300 mg/kg): No obvious toxic; Test Endpoint (toxic side effects) (SD rats; 1000 mg/kg): No obvious toxic
COc1c2cc(c(O)c1OC)CCCC[C@@H](O)CCc1ccc(O)c-2c1 [myricanol, reference compound]	–	–	strong ability to inhibit	can inhibit	PGE2 ([3]; LPS + 20 μM, LPS alone 1154.90 ± 84.20, control −407.37 ± 57.67): 904.98 ± 18.02 pg/mL

— patent publication US11602514B2, “Medicament having anti-inflammatory bowel disease function, and preparation method therefor and application thereof” (SUZHOU PHARMAVAN CO., LTD, priority 2018, dated 2023)
